The values below come from ChEMBL document CHEMBL5370530, “Discovery of 2,5-diaminopyrimidine derivatives as the first series of selective monomeric degraders of B-lymphoid tyrosine kinase” (Eur J Med Chem, 2023).

Assay [1] in a line: (§1) Downregulation of BLK level in human Ramos cells at 0.3 uM measured after 12 hrs by Western blot analysis. It is filed as functional. For orientation: A western blot detects proteins with antibodies after separation by electrophoresis.
Assay [2] concerns the target Tyrosine-protein kinase SYK (Homo sapiens, UniProt P43405). Description: Inhibition of SYK phosphorylation in human Ramos cells incubated for 1 hr. Format: cell-based.
For assay [3], the system named is Ramos. The description is as §1. It is filed as functional.
Assay [4] deals with Tyrosine-protein kinase BTK (Homo sapiens, UniProt Q06187). Description: Inhibition of full length N-terminal GST tagged BTK (2 to 659 end residues) (unknown origin) expressed in Sf21insect cells by time resolved fluorescence based assay. Set-up: species or system Sf21.
Assay [5] addresses Tyrosine-protein kinase Lck (Homo sapiens) (UniProt P06239). Description: Induction of degradation of LCK in human Jurkat cells assessed as maximum degradation at > 1 uM incubated for 12 hrs by Western blot analysis relative to control. Format: cell-based.
For assay [6], the system named is DOHH-2. Description: Antiproliferative activity against human DOHH-2 cells at 0.1 to 0.3 uM measured after 72 hrs by cell titer glo luminescent cell viability assay. It is filed as functional, cell-based. The following applies: dose 0.1-0.3 µM. In general terms: Cellular ATP, detected with luciferase, serves as a proxy for viable cell number.
In the next assay the test system is HBL1. Description: Antiproliferative activity against human HBL1 cells at 0.1 to 0.3 uM measured after 72 hrs by cell titer glo luminescent cell viability assay. It is filed as functional, cell-based. As to conditions: dose 0.1-0.3 µM.
Assay [7] concerns SUD4. Description: Antiproliferative activity against human SU-DHL-4 cells at 0.1 to 0.3 uM measured after 72 hrs by cell titer glo luminescent cell viability assay. As to conditions: dose 0.1-0.3 µM. Format: functional, cell-based.
Another assay concerns Pfeiffer. Description: Antiproliferative activity against human Pfeiffer cells at 0.1 to 0.3 uM measured after 72 hrs by cell titer glo luminescent cell viability assay. Format: functional, cell-based. As to conditions: dose 0.1-0.3 µM.
The subject of assay [8] is SU-DHL-6. Description: Antiproliferative activity against human SU-DHL-6 cells at 0.1 to 0.3 uM measured after 72 hrs by cell titer glo luminescent cell viability assay. Format: functional, cell-based. The following applies: dose 0.1-0.3 µM.
Another assay concerns RS4-11. Description: Antiproliferative activity against human RS4-11 cells at 0.1 to 0.3 uM measured after 72 hrs by cell titer glo luminescent cell viability assay. It is filed as functional, cell-based. As to conditions: dose 0.1-0.3 µM.
The next assay relates to OPM-2. Description: Antiproliferative activity against human OPM-2 cells at 0.1 to 0.3 uM measured after 72 hrs by cell titer glo luminescent cell viability assay. The following applies: dose 0.1-0.3 µM. Format: functional, cell-based.
A further assay concerns OCI-Ly7. Description: Antiproliferative activity against human OCILY7 cells at 0.1 to 0.3 uM measured after 72 hrs by cell titer glo luminescent cell viability assay. Format: functional, cell-based. As to conditions: dose 0.1-0.3 µM.
The test system of the next assay is Raji. Description: Antiproliferative activity against human Raji cells at 0.1 to 0.3 uM measured after 72 hrs by cell titer glo luminescent cell viability assay. It is filed as functional, cell-based. As to conditions: dose 0.1-0.3 µM.
In assay [9] the test system is Ramos. Description: Antiproliferative activity against human Ramos cells at 0.1 to 0.3 uM measured after 72 hrs by cell titer glo luminescent cell viability assay. It is filed as functional, cell-based. The following applies: dose 0.1-0.3 µM.
Another assay relates to NAMALVA. Description: Antiproliferative activity against human NAMALVA cells at 0.1 to 0.3 uM measured after 72 hrs by cell titer glo luminescent cell viability assay. It is filed as functional, cell-based. As to conditions: dose 0.1-0.3 µM.
A further assay deals with TMD8. Description: Antiproliferative activity against human TMD8 cells at 0.1 to 0.3 uM measured after 72 hrs by cell titer glo luminescent cell viability assay. It is filed as functional, cell-based. The following applies: dose 0.1-0.3 µM.
In a further assay the test system is RPMI-8226. Description: Antiproliferative activity against human RPMI-8226 cells at 0.1 to 0.3 uM measured after 72 hrs by cell titer glo luminescent cell viability assay. Format: functional, cell-based. The following applies: dose 0.1-0.3 µM.
Another assay has as its system CCRF-CEM. Description: Antiproliferative activity against human CCRF-CEM cells at 0.1 to 0.3 uM measured after 72 hrs by cell titer glo luminescent cell viability assay. Format: functional, cell-based. As to conditions: dose 0.1-0.3 µM.
Another assay concerns 6T-CEM. Description: Antiproliferative activity against human 6T-CEM cells at 0.1 to 0.3 uM measured after 72 hrs by cell titer glo luminescent cell viability assay. The following applies: dose 0.1-0.3 µM. Format: functional, cell-based.
For another assay, the system named is MOLT-4. Description: Antiproliferative activity against human MOLT-4 cells at 0.1 to 0.3 uM measured after 72 hrs by cell titer glo luminescent cell viability assay. As to conditions: dose 0.1-0.3 µM. It is filed as functional, cell-based.
For a further assay, the system named is Jurkat. Description: Antiproliferative activity against human Jurkat cells at 0.1 to 0.3 uM measured after 72 hrs by cell titer glo luminescent cell viability assay. The following applies: dose 0.1-0.3 µM. It is filed as functional, cell-based.
For another assay, the system named is A-431. Description: Antiproliferative activity against human A-431 cells at 0.1 to 0.3 uM measured after 72 hrs by cell titer glo luminescent cell viability assay. Format: functional, cell-based. As to conditions: dose 0.1-0.3 µM.
In another assay the test system is PC-9. Description: Antiproliferative activity against human PC-9 cells at 0.1 to 0.3 uM measured after 72 hrs by cell titer glo luminescent cell viability assay. Format: functional, cell-based. The following applies: dose 0.1-0.3 µM.
Another assay has as its system A549. Description: Antiproliferative activity against human A549 cells at 0.1 to 0.3 uM measured after 72 hrs by cell titer glo luminescent cell viability assay. Format: functional, cell-based. As to conditions: dose 0.1-0.3 µM.
The test system of another assay is A-375. Description: Antiproliferative activity against human A-375 cells at 0.1 to 0.3 uM measured after 72 hrs by cell titer glo luminescent cell viability assay. As to conditions: dose 0.1-0.3 µM. Format: functional, cell-based.
Assay [10] has as its system DOHH-2. Description: Growth inhibition of human DOHH-2 cells measured after 72 hrs by cell titer glo luminescent cell viability assay. It is filed as functional.
In assay [11] the test system is SUD4. Description: Growth inhibition of human SU-DHL-4 cells measured after 72 hrs by cell titer glo luminescent cell viability assay. It is filed as functional.
In assay [12] the test system is SU-DHL-6. Description: Growth inhibition of human SU-DHL-6 cells measured after 72 hrs by cell titer glo luminescent cell viability assay. Format: functional.
For assay [13], the system named is DOHH-2. Description: Downregulation of CDK2 level in human DOHH-2 cells at 1 uM measured after 48 hrs by Western blot analysis. It is filed as functional, cell-based.
Assay [14] relates to SU-DHL-6. Description: Downregulation of CDK2 level in human SU-DHL-6 cells at 1 uM measured after 48 hrs by Western blot analysis. Format: functional, cell-based.

Each structure is given as a SMILES string. Calls of active or inactive are those of the source. The rule behind the calls is not given here. Some results are limits rather than exact numbers.

Sequence of Tyrosine-protein kinase BTK (Q06187 whole entry): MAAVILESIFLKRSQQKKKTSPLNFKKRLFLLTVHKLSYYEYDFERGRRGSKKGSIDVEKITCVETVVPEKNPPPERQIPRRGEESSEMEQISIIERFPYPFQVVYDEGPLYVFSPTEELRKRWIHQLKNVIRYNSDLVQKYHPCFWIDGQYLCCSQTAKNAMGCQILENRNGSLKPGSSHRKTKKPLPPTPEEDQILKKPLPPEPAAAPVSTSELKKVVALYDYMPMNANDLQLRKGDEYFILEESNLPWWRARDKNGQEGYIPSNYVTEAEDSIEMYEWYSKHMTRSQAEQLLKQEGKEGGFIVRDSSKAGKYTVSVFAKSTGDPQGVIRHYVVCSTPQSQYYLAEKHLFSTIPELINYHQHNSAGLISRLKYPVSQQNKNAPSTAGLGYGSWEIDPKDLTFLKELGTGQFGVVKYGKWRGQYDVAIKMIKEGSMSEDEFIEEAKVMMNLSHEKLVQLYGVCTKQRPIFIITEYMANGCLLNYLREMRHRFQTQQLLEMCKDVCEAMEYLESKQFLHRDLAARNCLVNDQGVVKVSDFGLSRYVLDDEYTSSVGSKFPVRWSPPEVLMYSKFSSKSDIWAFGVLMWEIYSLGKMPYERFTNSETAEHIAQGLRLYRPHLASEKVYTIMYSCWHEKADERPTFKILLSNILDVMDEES
Sequence of Tyrosine-protein kinase Lck (Homo sapiens) (P06239 2-509 limits assumed): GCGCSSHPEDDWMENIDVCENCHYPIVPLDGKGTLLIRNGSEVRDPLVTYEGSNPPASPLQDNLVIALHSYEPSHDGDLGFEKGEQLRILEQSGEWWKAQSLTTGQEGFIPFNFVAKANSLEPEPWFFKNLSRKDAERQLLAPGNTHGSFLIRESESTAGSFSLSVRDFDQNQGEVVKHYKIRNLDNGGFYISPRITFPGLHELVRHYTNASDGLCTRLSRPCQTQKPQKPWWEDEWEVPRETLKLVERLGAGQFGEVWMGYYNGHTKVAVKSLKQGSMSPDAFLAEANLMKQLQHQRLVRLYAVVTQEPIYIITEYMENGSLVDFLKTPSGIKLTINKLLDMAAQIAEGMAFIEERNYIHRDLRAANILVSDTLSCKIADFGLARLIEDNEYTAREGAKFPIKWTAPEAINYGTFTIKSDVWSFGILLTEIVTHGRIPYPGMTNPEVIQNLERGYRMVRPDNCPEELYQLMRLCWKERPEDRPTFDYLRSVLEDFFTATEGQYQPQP

For orientation: IC50 means the midpoint of a concentration-inhibition curve. Consider `CCC(=O)Nc1cccc(Nc2ncc(NC(=O)c3cc(NC(=O)c4cccc(C(F)(F)F)c4)ccc3C)cn2)c1`, for which, in [1], the Activity is listed as over 85%. Besides, the IC50 in assay [2] was under 100 nM.

With `Cc1ccc(NC(=O)c2ccc3cnccc3c2)cc1C(=O)Nc1cnc(Nc2cccc(C3CCN(C(=O)/C=C/CN(C)C)CC3)c2)nc1`, in the assay with Ramos [3], the result was Active.

Regarding `Cc1nc(Nc2ncc(C(=O)Nc3c(C)cccc3Cl)s2)cc(N2CCN(CCO)CC2)n1`, the result in the assay with Ramos [3] was Active.

In general, Emax refers to the maximal effect, on the per cent scale that the assay sets. Consider `Cc1ccc(NC(=O)c2ccc(Oc3ccccc3)cc2)cc1C(=O)Nc1cnc(Nc2cccc(N)c2)nc1`, for which the IC50 in [4] worked out at 991 nM; in assay [2] it was 2730 nM. In addition, in [5], the Emax was under 50%.

For `C=CC(=O)Nc1cccc(Nc2nc(Nc3ccc(OCCOC)cc3)ncc2F)c1`, in the assay on Ramos [3], the result was Active.

In assay [4], `Cc1ccc(NC(=O)CC23C[C@H]4C[C@@H](C2)C[C@@H](C3)C4)cc1C(=O)Nc1cnc(Nc2cccc(N)c2)nc1` showed an IC50 of 338 nM.

Take `C=CC(=O)NCCC(=O)c1cccc(Nc2ncc(NC(=O)c3cc(NC(=O)c4cccc(-c5ccc(F)cc5)c4)ccc3C)cn2)c1`: the Activity in [1] is over 85%.

For orientation: GI50 means the concentration that inhibits growth by half. With `Cc1ccc(NC(=O)c2ccc(-c3cccc(C(F)(F)F)c3)cc2)cc1C(=O)Nc1cnc(Nc2cccc(N)c2)nc1`, the IC50 is 2560 nM in assay [4] and 2900 nM in [2]. The Emax in assay [5] is under 50%. The outcome in the assay on DOHH-2 [6], with SUD4 [7], in the assay with Pfeiffer, with SU-DHL-6 [8], in the assay with DOHH-2 [13] and with SU-DHL-6 [14] was Active. Also, the result in the assay on HBL1, in the assay on RS4-11, with OPM-2, in the assay with OCI-Ly7, in the assay on Raji and in the assay with Ramos [9] was inactive. Further, the outcome in the assay with NAMALVA, in the assay with TMD8, in the assay with RPMI-8226, with CCRF-CEM, in the assay on 6T-CEM and with MOLT-4 was inactive. Also, the result in the assay with Jurkat, in the assay on A-431, with PC-9, with A549 and with A-375 was inactive. The GI50 in the assay with DOHH-2 [10] was 130 nM; with SUD4 [11] it was 180 nM; in the assay on SU-DHL-6 [12], 360 nM.

`Cc1ccc(NC(=O)C[C@@]23C[C@@H]4C[C@@H](C[C@@](O)(C4)C2)C3)cc1C(=O)Nc1cnc(Nc2cccc(N)c2)nc1` came in with an IC50 in [4] of 855 nM.

Regarding `Cc1ccc(-c2nn(C(C)(C)C)c3ncnc(N)c23)cc1`, in the assay on Ramos [3], the outcome was inactive. The results for the GI50 in the assay on DOHH-2 [10], with SUD4 [11] and in the assay with SU-DHL-6 [12] were 3700 nM, over 10000 nM and 4700 nM, respectively.

In the case of `C=CC(=O)N1CCC(c2cccc(Nc3ncc(NC(=O)c4cc(NC(=O)c5ccc6cnccc6c5)ccc4C)cn3)c2)CC1`, in the assay with Ramos [3], the outcome was Active.

In the case of `Cc1ccc(NC(=O)Cc2ccc(-c3ccccc3)cc2)cc1C(=O)Nc1cnc(Nc2cccc(N)c2)nc1`, it took 5810 nM to reach half-maximal inhibition in assay [4] (IC50). Also, in [5], the Emax was under 50%. Further, the values for the GI50 with DOHH-2 [10], in the assay on SUD4 [11] and in the assay on SU-DHL-6 [12] were 2500 nM, 8900 nM and 6200 nM, respectively.

As to `Cc1ccc(NC(=O)c2ccc3ccccc3c2)cc1C(=O)Nc1cnc(Nc2cccc(N)c2)nc1`, the IC50 in [2] was under 100 nM.

Consider `C=CC(=O)N1CCC[C@@H](n2nc(-c3ccc(Oc4ccccc4)cc3)c3c(N)ncnc32)C1`, for which, in the assay with Ramos [3], the outcome was inactive.

For `CN1CCN(CCOc2cc(OC3CCOCC3)c3c(Nc4c(Cl)ccc5c4OCO5)ncnc3c2)CC1`, in the assay on Ramos [3], the result was Active.
